The values below come from patent US20140296212A1, “SUBSTITUTED PHENOXYPROPYLCYCLOAMINE DERIVATIVES AS HISTAMINE-3 (H3) RECEPTOR LIGANDS” (CEPHALON, INC., priority 2009, published 2014).

pKi: −log10 of the molar value. Like-named read-outs stand apart in the source and are kept apart here.

One series concerns the target T1, human H3 receptor (Homo sapiens, UniProt Q9Y5N1).
T1 construct: expressed in transfected cells
The experiment in a line: Human H3 radioligand binding ([3H]-N-alpha-methylhistamine, SPA). To be noted: membranes of CHO cells expressing human H3. In short, it runs like this: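 Membranes from H3-expressing cells (10 μg protein/well) in 50 mM Tris HCl pH 7.4, 5 mM MgCl2, 0.1% BSA with ~1 nM [3H]-N-alpha-methylhistamine and compound (0.01 nM–30 μM), SPA beads, 4 h, room temperature, dark. Non-specific binding defined with 10 μM clobenpropit; bound radioligand read by scintillation counting.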

In series [1] the target is T2, rat histamine H3 receptor (Rattus norvegicus, UniProt Q9QYN8).
T2 construct: encoding the entire 445-amino-acid rat histamine H3 receptor; expressed in transfected cells
The series is described as follows: Rat H3 radioligand binding ([3H]-N-alpha-methylhistamine, SPA). Summed up:
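Membranes from CHO-A3 cells stably expressing full-length rat H3 receptor (445 aa) incubated with ~1 nM [3H]-N-alpha-methylhistamine and compound (0.01 nM–30 μM) in 50 mM Tris HCl pH 7.4, 5 mM MgCl2, 0.1% BSA, 4 h, room temperature; SPA bead read-out. Non-specific binding defined with 10 μM clobenpropit.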

Setting [2] is: membranes of CHO-A3 cells expressing rat H3, [3H]-N-alpha-methylhistamine, read-out: Rat H3 Ki.

T2 sequence (Q9QYN8 whole entry): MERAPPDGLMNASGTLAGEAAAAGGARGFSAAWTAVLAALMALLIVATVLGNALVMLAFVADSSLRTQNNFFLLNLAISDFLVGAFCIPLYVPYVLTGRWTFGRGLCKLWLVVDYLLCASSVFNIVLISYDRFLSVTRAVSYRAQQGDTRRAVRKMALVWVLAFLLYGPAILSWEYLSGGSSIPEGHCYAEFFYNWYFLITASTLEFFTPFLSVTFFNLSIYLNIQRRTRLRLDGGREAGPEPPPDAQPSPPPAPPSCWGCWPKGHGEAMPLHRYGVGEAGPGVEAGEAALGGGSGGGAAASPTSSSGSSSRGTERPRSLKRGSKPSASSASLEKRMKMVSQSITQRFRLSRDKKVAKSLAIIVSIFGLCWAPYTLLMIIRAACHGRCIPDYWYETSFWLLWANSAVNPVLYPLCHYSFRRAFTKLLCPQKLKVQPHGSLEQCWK
T1 sequence (Q9Y5N1 whole entry): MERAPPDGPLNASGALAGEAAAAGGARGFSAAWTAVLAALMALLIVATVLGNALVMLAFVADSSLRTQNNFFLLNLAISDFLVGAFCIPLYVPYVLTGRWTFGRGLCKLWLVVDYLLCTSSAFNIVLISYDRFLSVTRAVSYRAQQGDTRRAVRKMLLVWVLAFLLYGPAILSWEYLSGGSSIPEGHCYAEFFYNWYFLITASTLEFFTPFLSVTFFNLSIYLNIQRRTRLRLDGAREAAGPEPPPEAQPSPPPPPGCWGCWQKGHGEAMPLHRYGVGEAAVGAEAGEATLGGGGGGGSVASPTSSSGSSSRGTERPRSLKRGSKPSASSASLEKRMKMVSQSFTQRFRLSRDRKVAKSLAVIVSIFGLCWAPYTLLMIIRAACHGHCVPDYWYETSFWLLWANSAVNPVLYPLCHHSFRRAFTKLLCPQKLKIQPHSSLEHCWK

Broadly, the pKi is the negative decadic logarithm of the Ki, by convention in mol/L. As a reminder, the melting point is the temperature, or range, at which the solid turns liquid. Take `Cc1cc(C(=O)CN2CCN(c3ncccn3)CC2)cc(C)c1OCCCN1CCC[C@H]1C` [Example 104, 1-{3,5-Dimethyl-4-[3-((R)-2-methyl-pyrrolidin-1-yl)-propoxy]-phenyl}-2-(4-pyrimidin-2-yl-piperazin-1-yl)-ethanone]: the melting point is 155 to 160 °C (dec.). This molecule had a pKi on human H3 receptor of 6.30 to 7.00. The pKi in series [1] (setting [2]) was 6.00 to 6.30.

`C[C@@H]1CCCN1CCCOc1c(Cl)cc(C(=O)CN2CCC(F)(F)CC2)cc1Cl` [Example 98, 1-{3,5-Dichloro-4-[3-((R)-2-methyl-pyrrolidin-1-yl)-propoxy]-phenyl}-2-(4,4-difluoro-piperidin-1-yl)-ethanone] had a melting point of 102 °C. At human H3 receptor, this molecule gave a pKi of 7.00 to 10.00. Also, the pKi in series [1] (setting [2]) was less than 6.00.

On to `CC(=O)N1CCN(CC(=O)c2cc(Cl)c(OCCCN3CCC[C@H]3C)c(Cl)c2)CC1` [Example 110, 2-(4-Acetyl-piperazin-1-yl)-1-{3,5-dichloro-4-[3-((R)-2-methyl-pyrrolidin-1-yl)-propoxy]-phenyl}-ethanone], for which the melting point was 115 °C. The molecule further had a pKi at human H3 receptor of 6.30 to 7.00. The pKi in series [1] (setting [2]) is 6.30 to 7.00.

Molecule `C[C@@H]1CCCN1CCCOc1ccc(C(=O)CN2CCN(C(=O)C3CC3)CC2)cc1` [Example 89, 2-(4-Cyclopropanecarbonyl-piperazin-1-yl)-1-{4-[3-((R)-2-methyl-pyrrolidin-1-yl)-propoxy]-phenyl}-ethanone] returned a melting point of 202 to 204 °C. The pKi on human H3 receptor was 7.00 to 10.00. Also, the pKi in series [1] (setting [2]) was 7.00 to 10.00.

In the case of `O=C(CN1CCC(F)(F)CC1)c1ccc(OCCCN2CCCCC2)c(Cl)c1` [Example 147, 1-[3-Chloro-4-(3-piperidin-1-yl-propoxy)-phenyl]-2-(4,4-difluoro-piperidin-1-yl)-ethanone], the melting point lay within 122 to 135 °C. On human H3 receptor, this molecule showed a pKi of 6.30 to 7.00. The pKi in series [1] (setting [2]) is less than 6.00.

`CC1CCCC(C)N1CC(=O)c1ccc(OCCCN2CCC[C@H]2C)cc1` (stereo partly drawn) [Example 61, 2-(2,6-Dimethyl-piperidin-1-yl)-1-{4-[3-((R)-2-methyl-pyrrolidin-1-yl)-propoxy]-phenyl}-ethanone] yielded a melting point of 127 to 135 °C. On human H3 receptor, this molecule showed a pKi of 7.00 to 10.00. In series [1] (setting [2]), the pKi was 7.00 to 10.00.

Consider `CC(=O)N1CCN(CC(=O)c2ccc(OCCCN3CCC[C@H]3C)c(Cl)c2)CC1` [Example 135, 2-(4-Acetyl-piperazin-1-yl)-1-{3-chloro-4-[3-((R)-2-methyl-pyrrolidin-1-yl)-propoxy]-phenyl}-ethanone], for which the melting point is 113 to 128 °C. On human H3 receptor, the pKi is 7.00 to 10.00. Moreover, the pKi in series [1] (setting [2]) was 7.00 to 10.00.

Molecule `C[C@@H]1CCCN1CCCOc1ccc(C(=O)CN2CCN(C(=O)c3ccc(Cl)cc3)CC2)cc1` [Example 100, 2-[4-(4-Chloro-benzoyl)-piperazin-1-yl]-1-{4-[3-((R)-2-methyl-pyrrolidin-1-yl)-propoxy]-phenyl}-ethanone] registered a melting point of 233 to 236 °C. The same molecule gave a pKi on human H3 receptor of 7.00 to 10.00. Also, the pKi in series [1] (setting [2]) is 7.00 to 10.00.

For the molecule `C[C@@H]1CCCN1CCCOc1ccc(C(=O)CN2CCN(C(=O)N3CCCC3)CC2)cc1` [Example 75, 1-{4-[3-((R)-2-Methyl-pyrrolidin-1-yl)-propoxy]-phenyl}-2-[4-(pyrrolidine-1-carbonyl)-piperazin-1-yl]-ethanone], the melting point was 118 to 130 °C. This molecule gave a pKi on human H3 receptor of 7.00 to 10.00. Moreover, in series [1] (setting [2]), the pKi was 7.00 to 10.00.

The molecule `C[C@@H]1CCCN1CCCOc1ccc(C(=O)CN2CCN(c3ccccc3)CC2)cc1F` [Example 143, 1-{3-Fluoro-4-[3-((R)-2-methyl-pyrrolidin-1-yl)-propoxy]-phenyl}-2-(4-phenyl-piperazin-1-yl)-ethanone] came in with a melting point of 140 °C. The molecule further had a negative logarithm of the Ki (pKi) at human H3 receptor of 7.00 to 10.00. In addition, the pKi in series [1] (setting [2]) is 7.00 to 10.00.

Molecule `C[C@@H]1CCCN1CCCOc1c(Cl)cc(C(=O)CN2CCN(C(=O)c3ccccc3)CC2)cc1Cl` [Example 96, 2-(4-Benzoyl-piperazin-1-yl)-1-{3,5-dichloro-4-[3-((R)-2-methyl-pyrrolidin-1-yl)-propoxy]-phenyl}-ethanone] returned a melting point of 111 °C. The pKi on human H3 receptor was 7.00 to 10.00. Moreover, in series [1] (setting [2]), the negative-log Ki (pKi) is 6.30 to 7.00.

As to `C[C@@H]1CCCN1CCCOc1ccc(C(=O)CN2CCN(C(=O)c3ccc4ccccc4c3)CC2)cc1` [Example 109, 1-{4-(3-((R)-2-Methyl-pyrrolidin-1-yl)-propoxy]-phenyl}-2-[4-(naphthalene-2-carbonyl)-piperazin-1-yl]-ethanone], the melting point was 100.5 to 109.5 °C. This molecule had a pKi at human H3 receptor of 7.00 to 10.00. Also, the pKi in series [1] (setting [2]) was 7.00 to 10.00.

For `Cc1cc(OCCCN2CCCCC2)ccc1C(=O)CN1CCOCC1` [Example 72, 1-[2-Methyl-4-(3-piperidin-1-yl-propoxy)-phenyl]-2-morpholin-4-yl-ethanone], the melting point is 206 to 215 °C. Further, on human H3 receptor, the pKi is 7.00 to 10.00. Moreover, the pKi in series [1] (setting [2]) was 6.30 to 7.00.

In turn, `C[C@@H]1CCCN1CCCOc1ccc(C(=O)CN2CCN(C(=O)c3ccccc3-c3ccccc3)CC2)cc1` [Example 152, 2-[4-(Biphenyl-2-carbonyl)-piperazin-1-yl]-1-{4-[3-((R)-2-methyl-pyrrolidin-1-yl)-propoxy]-phenyl}-ethanone] returned a melting point of 117 to 119 °C. The molecule also gave a pKi on human H3 receptor of 7.00 to 10.00. In series [1] (setting [2]), the pKi is 7.00 to 10.00.

Take `CC(C)N1CCC(Oc2ccc(C(=O)CN3CCCC(F)(F)C3)cc2)CC1` [Example 53, 2-(3,3-Difluoro-piperidin-1-yl)-1-[4-(1-isopropyl-piperidin-4-yloxy)-phenyl]-ethanone]: the melting point was 160 to 165 °C (dec.). Moreover, on human H3 receptor, the negative logarithm of the Ki (pKi) is 7.00 to 10.00. Also, the pKi in series [1] (setting [2]) is 6.30 to 7.00.

For the molecule `C[C@@H]1CCCN1CCCOc1ccc(C(=O)CN2CCC(F)(F)C2)cc1F` [Example 139, 2-(3,3-Difluoro-pyrrolidin-1-yl)-1-{3-fluoro-4-[3-((R)-2-methyl-pyrrolidin-1-yl)-propoxy]-phenyl}-ethanone], the melting point was 206 °C. Moreover, on human H3 receptor, the pKi was 7.00 to 10.00. In addition, the pKi in series [1] (setting [2]) was 7.00 to 10.00.

Turning to `C[C@@H]1CCCN1CCCOc1ccc(C(=O)CN2CCNC(=O)C2)cc1` [Example 85, 4-(2-{4-[3-((R)-2-Methyl-pyrrolidin-1-yl)-propoxy]-phenyl}-2-oxo-ethyl)-piperazin-2-one], the melting point lay within 137 to 145 °C. This molecule had a pKi at human H3 receptor of 7.00 to 10.00. In addition, in series [1] (setting [2]), the pKi was 7.00 to 10.00.

With `CC(C)C(=O)N1CCN(CC(=O)c2ccc(OCCCN3CCC[C@H]3C)c(F)c2)CC1` [Example 121, 1-[4-(2-{3-Fluoro-4-[3-((R)-2-methyl-pyrrolidin-1-yl)-propoxy]-phenyl}-2-oxoethyl)-piperazin-1-yl]-2-methyl-propan-1-one], the melting point was 75 °C. This molecule also showed a pKi at human H3 receptor of 7.00 to 10.00. Besides, the pKi in series [1] (setting [2]) was 7.00 to 10.00.

Consider `CC1CCC(C)N1CC(=O)c1ccc(OCCCN2CCC[C@H]2C)cc1` (stereo partly drawn) [Example 58, 2-(2,5-Dimethyl-pyrrolidin-1-yl)-1-{4-[3-((R)-2-methyl-pyrrolidin-1-yl)-propoxy]-phenyl}-ethanone], for which the melting point was in the range of 100 to 106 °C. At human H3 receptor, this molecule showed a pKi of 7.00 to 10.00. The pKi in series [1] (setting [2]) was 7.00 to 10.00.

Consider `C[C@@H]1CCCN1CCCOc1ccc(C(=O)CN2CCN(C(=O)C3CCCCC3)CC2)cc1` [Example 93, 2-(4-Cyclohexanecarbonyl-piperazin-1-yl)-1-{4-[3-((R)-2-methyl-pyrrolidin-1-yl)-propoxy]-phenyl}-ethanone], for which the melting point fell in the range of 230 to 232 °C. Also, the pKi at human H3 receptor is 7.00 to 10.00. Further, in series [1] (setting [2]), the pKi was 7.00 to 10.00.

Turning to `C[C@@H]1CCCN1CCCOc1ccc(C(=O)CN2CCN(C(=O)N(C)C)CC2)cc1F` [Example 123], the melting point turned out to be 81 °C. This molecule also gave a pKi at human H3 receptor of 7.00 to 10.00. For the same molecule, the pKi in series [1] (setting [2]) was 7.00 to 10.00.

On to `C[C@@H]1CCCN1CCCOc1ccc(C(=O)CN2CCN(C(=O)c3ccc(C(F)(F)F)cc3)CC2)cc1` [Example 92, 1-{4-[3-((R)-2-Methyl-pyrrolidin-1-yl)-propoxy]-phenyl}-2-[4-(4-trifluoromethyl-benzoyl)-piperazin-1-yl]-ethanone], for which the melting point fell in the range of 227 to 230 °C. For the same molecule, the pKi on human H3 receptor was 7.00 to 10.00. Moreover, the negative logarithm of the Ki (pKi) in series [1] (setting [2]) was 7.00 to 10.00.

Molecule `C[C@@H]1CCCN1CCCOc1ccc(C(=O)CN2CCN(C(=O)c3ccc(F)cc3F)CC2)cc1` [Example 126, 2-[4-(2,4-Difluoro-benzoyl)-piperazin-1-yl]-1-{4-[3-((R)-2-methyl-pyrrolidin-1-yl)-propoxy]-phenyl}-ethanone] registered a melting point of 115 to 117 °C. For the same molecule, the pKi at human H3 receptor was 7.00 to 10.00. Besides, the pKi in series [1] (setting [2]) was 7.00 to 10.00.

Molecule `C[C@@H]1CCCN1CCCOc1c(Cl)cc(C(=O)CN2CCN(C(=O)C3CCCCC3)CC2)cc1Cl` [Example 99, 2-(4-Cyclohexanecarbonyl-piperazin-1-yl)-1-{3,5-dichloro-4-[3-((R)-2-methyl-pyrrolidin-1-yl)-propoxy]-phenyl}-ethanone] registered a melting point of 168 °C. Besides, the pKi on human H3 receptor is 7.00 to 10.00. Also, the pKi in series [1] (setting [2]) was 6.30 to 7.00.

Molecule `CC(C(=O)c1ccc(OCCCN2CCC[C@H]2C)cc1)N1CCOCC1` (stereo partly drawn) [Example 37, 1-{4-[3-((R)-2-Methyl-pyrrolidin-1-yl)-propoxy]-phenyl}-2-morpholin-4-yl-propan-1-one] yielded a melting point of 231 °C. On human H3 receptor, this molecule had a pKi of 7.00 to 10.00. Besides, the pKi in series [1] is 6.30 to 7.00.
